# Measured values from patent publication US11530206B2, “Phenylaminopyrimidine amide autophagy inhibitors and methods of use thereof” (Deciphera Pharmaceuticals, LLC, priority 2019, dated 2022).
# Columns and labels:
# ULK1 kinase [1] = biological target: T1, ULK1 kinase (Homo sapiens, UniProt O75385); assay: Biochemical assay for ULK1.2 (coupled pyruvate kinase/lactate dehydrogenase assay); conditions: 19 nM ULK1 (residues 1-314, His tag), myelin basic protein, 1 mM ATP
# T1 construct: purchased Eurofins 14-959
# T1 sequence (O75385 with tags, fused parts or gaps): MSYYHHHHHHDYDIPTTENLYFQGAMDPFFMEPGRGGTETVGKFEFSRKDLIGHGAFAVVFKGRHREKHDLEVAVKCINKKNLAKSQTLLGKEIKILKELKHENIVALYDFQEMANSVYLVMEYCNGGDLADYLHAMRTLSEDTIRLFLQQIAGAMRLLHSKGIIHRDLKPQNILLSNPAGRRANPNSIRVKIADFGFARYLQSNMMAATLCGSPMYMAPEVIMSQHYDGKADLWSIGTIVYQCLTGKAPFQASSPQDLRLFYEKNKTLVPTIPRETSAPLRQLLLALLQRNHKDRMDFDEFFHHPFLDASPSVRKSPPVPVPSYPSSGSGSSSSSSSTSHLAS
# Protocol: Biochemical Assay for ULK1.2 (SEQ. ID NO: 1)
# Inhibition of ULK1 was measured by adding serial diluted test compound (final assay concentration of 1% DMSO). A decrease in absorption at 340 nm was monitored continuously for 6 hours at 30° C. on a multi-mode microplate reader (BioTek). The reaction rate was calculated using the 2-3 h time frame. The reaction rate at each concentration of compound was converted to percent inhibition using controls (i.e. reaction with no test compound and reaction with a known inhibitor) and IC50 values were calculated by fitting a four-parameter sigmoidal curve to the data using Prism (GraphPad software).
# ULK kinase [2] = assay: pATG13 levels of mutant KRas MiaPaCa-2 cells after treatment with ULK inhibitors in combination with trametinib (ELISA); type: cell-based, human; conditions: MiaPaCa-2 pancreatic cancer cells, 250 nM trametinib, overnight, pS318-ATG13
# How it was run: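 MiaPaCa-2 cells in DMEM with 10% FBS and 2.5% horse serum were pretreated with trametinib or DMSO, then given a test-compound dose response overnight at 37° C. Lysates were assayed for phospho-ATG13 by ELISA (A450 minus A540 background, blank-corrected). % phosphorylation was calculated relative to controls and fitted to IC50.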
# ULK2 kinase = biological target: T2, ULK2 kinase (Homo sapiens, UniProt Q8IYT8); assay: Biochemical assay for ULK2 (coupled pyruvate kinase/lactate dehydrogenase assay); conditions: 9.7 nM ULK2 (residues 1-306, GST and His tag), myelin basic protein, 1 mM ATP; read-out: ULK2.2
# T2 construct: purchased Eurofins 14-772
# Protocol: Example 132. Biochemical Assay for ULK2 (SEQ. ID NO: 3)
# Activity of ULK2 kinase was determined spectroscopically using a coupled pyruvate kinase/lactate dehydrogenase assay that continuously monitors the ATP hydrolysis-dependent oxidation of NADH (e.g., Schindler et al. Science (2000) 289: 1938-1942). Assays were conducted in 384-well plates (100 uL final volume) using 9.7 nM ULK2 (Eurofins CAT #14-772), 0.25 mg/mL myelin basic protein, 1.5 units pyruvate kinase, 2.1 units lactate dehydrogenase, 1 mM phosphoenol pyruvate, 0.28 mM NADH and 1 mM ATP in assay buffer (100 mM Tris, pH 7.5, 15 mM MgCl2, 0.5 mM DTT, 0.1% octyl-glucoside, 0.002% (w/v) BSA, and 0.002% Triton X-100). Inhibition of ULK2 was measured by adding serial diluted test compound (final assay concentration of 1% DMSO). A decrease in absorption at 340 nm was monitored continuously for 6 hours at 30° C. on a multi-mode microplate reader (BioTek). The reaction rate was calculated using the 2-3 h time frame. The reaction rate at each concentration of compound was converted to percent inhibition using controls (i.e. reaction with no test compound and reaction with a known inhibitor) and IC50 values were calculated by fitting a four-parameter sigmoidal curve to the data using Prism (GraphPad software).
# ULK kinase [3] = assay: pATG13 levels of mutant KRas A549 cells after treatment with ULK inhibitors in combination with trametinib (ELISA); type: cell-based, human; conditions: A549 (KRAS mutant) lung cancer cells, 250 nM trametinib, overnight, pS318-ATG13
# How it was run: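 Lysates with phosphatase/protease inhibitors assayed by pATG13 ELISA, A450 minus A540 background and blank-corrected. % ATG13 phosphorylation versus DMSO controls fitted to IC50.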
# LRRK2 kinase = biological target: T3, LRRK2 kinase (Homo sapiens, UniProt Q5S007); assay: Biochemical assay for LRRK2 (coupled pyruvate kinase/lactate dehydrogenase assay); conditions: 26.4 nM LRRK2 (residues 970-2528), peptide substrate, 1 mM ATP
# T3 construct: purchased Thermo Fisher
# Protocol: Example 138. Biochemical Assay for LRRK2 (SEQ. ID NO: 4)
# Activity of LRRK2 kinase was determined spectroscopically using a coupled pyruvate kinase/lactate dehydrogenase assay that continuously monitors the ATP hydrolysis-dependent oxidation of NADH (e.g., Schindler et al. Science (2000) 289: 1938-1942). Assays were conducted in 384-well plates (100 μL final volume) using 26.4 nM LRRK2 (Thermo Fisher), 0.1 mM peptide substrate ([…] (SEQ ID NO: 6)), 1.5 units pyruvate kinase, 2.1 units lactate dehydrogenase, 1 mM phosphoenol pyruvate, 0.28 mM NADH and 1 mM ATP in assay buffer (100 mM Tris, pH 7.5, 15 mM MgCl2, 0.5 mM DTT, 0.004% (w/v) BSA, and 0.004% Triton X-100). Inhibition of LRRK2 was measured by adding serial diluted test compound (final assay concentration of 1% DMSO). A decrease in absorption at 340 nm was monitored continuously for 6 hours at 30° C. on a multi-mode microplate reader (BioTek). The reaction rate was calculated using the 2-3 h time frame. The reaction rate at each concentration of compound was converted to percent inhibition using controls (i.e. reaction with no test compound and reaction with a known inhibitor) and IC50 values were calculated using software routines in Prism (GraphPad software).
# ULK1 kinase [4] = biological target: T4, ULK1 kinase (Homo sapiens, UniProt O75385, E37A/K38A); assay: Biochemical assay for ULK1.3 (coupled pyruvate kinase/lactate dehydrogenase assay, peptide substrate); conditions: 0.1 nM ULK1 (residues 1-283), 1 mM ATP
# T4 construct: purchased Beryllium
# T4 sequence (O75385 1-283 E37A/K38A): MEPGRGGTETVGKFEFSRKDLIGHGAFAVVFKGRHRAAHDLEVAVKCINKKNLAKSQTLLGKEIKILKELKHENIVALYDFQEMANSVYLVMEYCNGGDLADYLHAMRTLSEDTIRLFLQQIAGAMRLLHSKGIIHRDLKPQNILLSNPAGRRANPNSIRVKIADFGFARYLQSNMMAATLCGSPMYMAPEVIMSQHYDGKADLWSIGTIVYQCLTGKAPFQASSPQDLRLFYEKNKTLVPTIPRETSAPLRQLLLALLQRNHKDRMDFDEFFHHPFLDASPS
# How it was run: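 ULK1.3 activity was followed by continuous decrease in 340 nm absorbance over 6 h at 30 °C with 1% DMSO final. Rates were taken from the 2–3 h window and converted to percent inhibition against no-compound and known-inhibitor controls. IC50 values came from curve fitting.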
# T2 sequence (Q8IYT8 with tags, fused parts or gaps): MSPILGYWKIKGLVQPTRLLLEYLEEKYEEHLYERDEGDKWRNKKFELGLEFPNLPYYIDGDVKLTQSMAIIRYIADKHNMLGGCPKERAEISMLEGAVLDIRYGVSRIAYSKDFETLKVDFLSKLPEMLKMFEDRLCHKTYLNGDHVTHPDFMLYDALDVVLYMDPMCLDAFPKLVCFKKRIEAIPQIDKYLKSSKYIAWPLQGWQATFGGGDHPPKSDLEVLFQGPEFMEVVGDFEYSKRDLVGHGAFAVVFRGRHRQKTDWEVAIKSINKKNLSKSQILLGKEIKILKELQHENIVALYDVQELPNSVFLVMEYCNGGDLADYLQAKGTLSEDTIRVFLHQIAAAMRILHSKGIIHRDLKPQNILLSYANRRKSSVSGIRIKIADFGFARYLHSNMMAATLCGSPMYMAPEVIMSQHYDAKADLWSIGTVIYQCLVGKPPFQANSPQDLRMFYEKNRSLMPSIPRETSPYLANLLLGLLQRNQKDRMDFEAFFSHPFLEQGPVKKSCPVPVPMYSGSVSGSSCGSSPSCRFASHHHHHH
# T3 sequence (Q5S007 with tags, fused parts or gaps): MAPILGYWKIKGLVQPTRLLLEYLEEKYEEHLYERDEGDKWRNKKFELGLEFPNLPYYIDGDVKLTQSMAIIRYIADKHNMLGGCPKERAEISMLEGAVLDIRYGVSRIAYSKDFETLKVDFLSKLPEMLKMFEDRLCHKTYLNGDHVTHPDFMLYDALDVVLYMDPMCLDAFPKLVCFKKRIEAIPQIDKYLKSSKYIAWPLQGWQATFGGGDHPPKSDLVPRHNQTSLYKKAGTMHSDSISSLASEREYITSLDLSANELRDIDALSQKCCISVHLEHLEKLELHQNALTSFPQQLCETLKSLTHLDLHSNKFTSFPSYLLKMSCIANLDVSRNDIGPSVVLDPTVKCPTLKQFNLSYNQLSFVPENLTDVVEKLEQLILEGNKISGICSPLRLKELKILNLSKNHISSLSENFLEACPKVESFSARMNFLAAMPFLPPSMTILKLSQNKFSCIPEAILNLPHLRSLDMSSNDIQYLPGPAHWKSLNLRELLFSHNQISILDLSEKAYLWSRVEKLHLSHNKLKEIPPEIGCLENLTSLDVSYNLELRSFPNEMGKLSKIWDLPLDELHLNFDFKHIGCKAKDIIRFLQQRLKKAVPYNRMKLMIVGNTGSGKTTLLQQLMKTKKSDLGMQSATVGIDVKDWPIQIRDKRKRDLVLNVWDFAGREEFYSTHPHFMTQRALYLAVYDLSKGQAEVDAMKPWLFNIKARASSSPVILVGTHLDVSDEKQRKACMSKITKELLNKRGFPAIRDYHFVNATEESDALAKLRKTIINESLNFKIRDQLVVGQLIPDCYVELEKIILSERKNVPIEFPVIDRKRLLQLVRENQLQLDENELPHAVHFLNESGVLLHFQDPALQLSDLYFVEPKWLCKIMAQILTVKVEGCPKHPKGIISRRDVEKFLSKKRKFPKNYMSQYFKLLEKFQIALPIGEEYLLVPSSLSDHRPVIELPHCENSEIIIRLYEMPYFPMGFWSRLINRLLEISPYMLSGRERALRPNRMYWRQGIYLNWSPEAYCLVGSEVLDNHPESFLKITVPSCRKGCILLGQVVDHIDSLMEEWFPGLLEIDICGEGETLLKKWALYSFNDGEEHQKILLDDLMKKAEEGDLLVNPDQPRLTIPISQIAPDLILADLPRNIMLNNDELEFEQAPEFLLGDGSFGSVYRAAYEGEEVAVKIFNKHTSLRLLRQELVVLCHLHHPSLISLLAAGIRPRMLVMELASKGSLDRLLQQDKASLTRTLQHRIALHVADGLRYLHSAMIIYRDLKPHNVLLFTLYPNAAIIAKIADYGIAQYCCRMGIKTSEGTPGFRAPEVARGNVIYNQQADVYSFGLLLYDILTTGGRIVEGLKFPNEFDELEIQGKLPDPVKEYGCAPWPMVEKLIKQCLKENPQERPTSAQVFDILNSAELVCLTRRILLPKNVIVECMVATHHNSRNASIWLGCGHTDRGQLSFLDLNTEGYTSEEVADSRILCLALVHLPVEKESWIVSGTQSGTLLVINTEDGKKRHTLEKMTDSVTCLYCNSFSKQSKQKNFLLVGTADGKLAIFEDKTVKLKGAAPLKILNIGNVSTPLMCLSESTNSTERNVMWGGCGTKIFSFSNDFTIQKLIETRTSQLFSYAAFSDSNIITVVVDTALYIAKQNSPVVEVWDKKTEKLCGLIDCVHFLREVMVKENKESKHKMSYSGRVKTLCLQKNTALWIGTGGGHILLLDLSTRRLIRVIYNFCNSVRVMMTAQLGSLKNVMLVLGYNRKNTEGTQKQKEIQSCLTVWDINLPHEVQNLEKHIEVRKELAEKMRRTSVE
SMILES,IC50 (ULK1 kinase [1]),IC50 (ULK kinase [2]),IC50 (ULK2 kinase),IC50 (ULK kinase [3]),IC50 (LRRK2 kinase),IC50 (ULK1 kinase [4])
CCc1cc(N2CCOCC2)ccc1Nc1ncc(C(F)(F)F)c(NCCCN2CCCOCC2=O)n1 [Example 50],100 to 500 nM,> 600 nM,> 500 nM,> 600 nM,1 to 100 nM,–
O=C1COCCCN1CCCNc1nc(Nc2ccc(N3CCOCC3)cc2C2CC2)ncc1C(F)(F)F [Example 51],100 to 500 nM,–,> 500 nM,–,1 to 100 nM,–
CCc1cc(N2CCOCC2)ccc1Nc1ncc(Cl)c(NCCCN2CCCOCC2=O)n1 [Example 57],> 500 nM,–,> 500 nM,> 600 nM,–,–
O=C1COCCCN1CCCNc1nc(Nc2ccc(N3CCOCC3)cc2C2CC2)ncc1Cl [Example 59],> 500 nM,–,> 500 nM,–,–,–
O=C1CCOCCN1CCCNc1nc(Nc2ccc(N3CCOCC3)cc2C2CC2)ncc1C(F)(F)F [Example 71],1 to 25 nM,> 600 nM,> 500 nM,–,–,–
CCc1cc(N2CCOCC2)ccc1Nc1ncc(C(F)(F)F)c(NCCCN2CCOCCC2=O)n1 [Example 72],25 to 100 nM,300 to 600 nM,> 500 nM,–,–,–
Cc1cc(N2CCOCC2)ncc1Nc1ncc(C(F)(F)F)c(NCCCN2CCCCC2=O)n1 [Example 90],> 500 nM,–,> 500 nM,–,300 to 600 nM,–
Cc1cc(N2CCN(C)CC2)ncc1Nc1cc(NCCCN2CCCCC2=O)c(C(F)(F)F)cn1 [Example 95],100 to 500 nM,–,> 500 nM,–,–,–
Cc1cc(N2CCOCC2)ncc1Nc1cc(NCCCN2CCCCC2=O)c(C(F)(F)F)cn1 [Example 96],> 500 nM,–,> 500 nM,–,–,–
Cc1cc(-c2cnn(C)c2)ccc1Nc1ncc(C(F)(F)F)c(NCCCN2CCCCC2=O)n1 [Example 108],> 500 nM,–,> 500 nM,–,1 to 100 nM,–
Cc1cc(-c2cn(C)cn2)ccc1Nc1ncc(C(F)(F)F)c(NCCCN2CCOCCC2=O)n1 [Example 109],> 500 nM,–,> 500 nM,> 600 nM,1 to 100 nM,–

# Now from value to compound:
IC50 (ULK1 kinase [1]),IC50 (ULK kinase [2]),IC50 (ULK2 kinase),IC50 (ULK kinase [3]),IC50 (LRRK2 kinase),IC50 (ULK1 kinase [4]),SMILES
25 to 100 nM,300 to 600 nM,100 to 500 nM,300 to 600 nM,–,–,CCc1cc(N2CCN(C)CC2)ccc1Nc1ncc(C(F)(F)F)c(NCCCN2CCCC2=O)n1 [Example 4]
25 to 100 nM,–,100 to 500 nM,> 600 nM,–,–,Cc1cc(C2CCNCC2)ccc1Nc1ncc(C(F)(F)F)c(NCCCN2CCCCC2=O)n1 [Example 7]
25 to 100 nM,–,100 to 500 nM,100 to 300 nM,–,–,Cc1cc(C2CCN(C)CC2)ccc1Nc1ncc(C(F)(F)F)c(NCCCN2CCCCC2=O)n1 [Example 8]
1 to 25 nM,–,1 to 25 nM,–,–,–,"O=C1CCCCN1CCCNc1nc(Nc2ccc(N3CCCNCC3)cc2)ncc1C(F)(F)F [Example 9, 1-(3-((2-((4-(1,4-diazepan-1-yl)phenyl)amino)-5-(trifluoromethyl)pyrimidin-4-yl)amino)propyl)piperidin-2-one]"
1 to 25 nM,100 to 300 nM,1 to 25 nM,100 to 300 nM,–,–,"CCN1CCCN(c2ccc(Nc3ncc(C(F)(F)F)c(NCCCN4CCCCC4=O)n3)cc2)CC1 [Example 10, 1-(3-((2-((4-(4-ethyl-1,4-diazepan-1-yl)phenyl)amino)-5-(trifluoromethyl)pyrimidin-4-yl)amino)propyl)piperidin-2-one]"
1 to 25 nM,10 to 100 nM,1 to 25 nM,10 to 100 nM,–,–,CCc1cc(N2CCN(CC)CC2)ccc1Nc1ncc(C(F)(F)F)c(NCCCN2CCCCC2=O)n1 [Example 12]
1 to 25 nM,10 to 100 nM,1 to 25 nM,10 to 100 nM,–,–,CCN1CCN(c2ccc(Nc3ncc(C(F)(F)F)c(NCCCN4CCCCC4=O)n3)c(C3CC3)c2)CC1 [Example 13]
100 to 500 nM,–,25 to 100 nM,–,1 to 100 nM,–,Cc1cc(N2CCN(CCF)CC2)ccc1Nc1ncc(C(F)(F)F)c(NCCCN2CCCCC2=O)n1 [Example 18]
1 to 25 nM,100 to 300 nM,25 to 100 nM,100 to 300 nM,–,–,CCN1CCN(c2ccc(Nc3ncc(C(F)(F)F)c(NCCCN4CCCCC4=O)n3)c(C)c2)CC1 [Example 19]
1 to 25 nM,100 to 300 nM,1 to 25 nM,300 to 600 nM,–,–,Cc1cc(N2CCN(C3CCC3)CC2)ccc1Nc1ncc(C(F)(F)F)c(NCCCN2CCCCC2=O)n1 [Example 21]
1 to 25 nM,–,100 to 500 nM,–,–,–,Cc1cc(N2CCN(C3CC3)CC2)ccc1Nc1ncc(C(F)(F)F)c(NCCCN2CCCCC2=O)n1 [Example 22]
1 to 25 nM,100 to 300 nM,25 to 100 nM,10 to 100 nM,–,–,Cc1cc(N2CCN(C)CC2)ccc1Nc1ncc(C(F)(F)F)c(NCCCN2CCOCCC2=O)n1 [Example 65]
–,–,25 to 100 nM,–,100 to 300 nM,–,CCc1cc(N2CCN(C)CC2)ccc1Nc1ncc(C(F)(F)F)c(NCCCN2CCOCCC2=O)n1 [Example 66]
25 to 100 nM,> 600 nM,100 to 500 nM,100 to 300 nM,–,25 to 100 nM,Cc1cc(N2CCN(C)CC2)ncc1Nc1ncc(C(F)(F)F)c(NCCCN2CCCCC2=O)n1 [Example 91]
